These results are taken from article PMC4724314 (European journal of medicinal chemistry, 2015).

Data set [1] addresses T1, IDO1 (Homo sapiens, UniProt P14902). Description: UV-Vis absorption spectroscopy of inhibitor binding to IDO1. Conditions: 500 μM inhibitor; for effect of inhibitor on CO-bound ferrous IDO1: CO as surrogate for O2; for Soret band of deoxy ferrous IDO1 on inhibitor binding: without inhibitor 427 nm.
Data set [2] concerns the target T1, IDO1. Put plainly: Recombinant human IDO1 enzyme inhibition assay. In kind it is biochemical. The settings on record: for ligand efficiency: LE=1.37*pKi/number of heavy atoms; for mode of inhibition: Lineweaver-Burk graphical analysis.
The next data set deals with catalase. Put plainly: Catalase inhibition. In kind it is biochemical. Conditions: catalase IC50 relative to IDO1 IC50.
Sequence of catalase (P00432 2-527): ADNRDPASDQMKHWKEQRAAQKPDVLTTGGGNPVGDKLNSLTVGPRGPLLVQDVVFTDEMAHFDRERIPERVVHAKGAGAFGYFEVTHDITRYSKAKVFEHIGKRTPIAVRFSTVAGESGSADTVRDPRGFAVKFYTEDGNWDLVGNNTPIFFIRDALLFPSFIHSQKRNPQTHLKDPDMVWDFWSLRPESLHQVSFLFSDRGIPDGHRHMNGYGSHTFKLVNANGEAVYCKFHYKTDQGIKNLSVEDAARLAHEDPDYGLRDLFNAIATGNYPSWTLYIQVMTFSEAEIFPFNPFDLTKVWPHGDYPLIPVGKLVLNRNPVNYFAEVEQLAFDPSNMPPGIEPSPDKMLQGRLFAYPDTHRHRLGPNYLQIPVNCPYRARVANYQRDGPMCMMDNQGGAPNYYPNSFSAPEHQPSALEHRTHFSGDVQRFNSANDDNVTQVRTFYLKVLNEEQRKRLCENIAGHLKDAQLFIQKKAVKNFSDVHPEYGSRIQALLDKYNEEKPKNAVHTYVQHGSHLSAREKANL
A further data set concerns HeLa cells. Description: Cell viability. It counts as cell-based, human. Conditions: up to concentrations of 100 μM.
For the next data set, the system named is human serum protein. Put plainly: Impact of human serum protein binding on inhibitory activity. In kind it is in vitro ADME.

Structures can show the parent of a compound that is named as a salt.

T1 sequence (P14902 whole entry): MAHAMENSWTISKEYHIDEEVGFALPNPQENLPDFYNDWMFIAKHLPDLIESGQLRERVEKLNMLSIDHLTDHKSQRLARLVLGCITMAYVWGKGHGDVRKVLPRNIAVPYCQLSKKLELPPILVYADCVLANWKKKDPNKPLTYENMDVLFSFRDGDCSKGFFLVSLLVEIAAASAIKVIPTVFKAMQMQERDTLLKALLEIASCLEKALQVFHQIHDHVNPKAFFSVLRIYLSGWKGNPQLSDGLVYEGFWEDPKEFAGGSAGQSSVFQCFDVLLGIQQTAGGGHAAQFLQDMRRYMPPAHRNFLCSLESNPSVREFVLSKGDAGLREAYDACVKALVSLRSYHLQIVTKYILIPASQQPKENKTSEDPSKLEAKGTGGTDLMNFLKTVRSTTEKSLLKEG

`COc1ccc(OC)c(CON)c1.Cl` [Compound 40, O-(2,5-Dimethoxybenzyl)hydroxylamine hydrochloride]: on IDO1 [1], the “effect of inhibitor on CO-bound ferrous IDO1” value was “inhibitor binding partially prevents CO binding to the heme iron” and the “Soret band of deoxy ferrous IDO1 on inhibitor binding” value (shortened to “Soret band … on inhibitor binding”) was 419–421 nm.

Take `NNc1ccccc1` [Ph-NH-NH2, phenylhydrazine]: the “reversibility of IDO1 inhibition” value on IDO1 [2] is reported as “did not see any signs of irreversible inhibition”.

As for `Cl.NOCc1ccc(I)cc1` [Compound 8, 4-(Iodobenzyl)hydroxylamine hydrochloride], on IDO1 [2], the “reversibility of IDO1 inhibition” value is given as “reversible”, the ligand efficiency worked out at 0.93 and the mode of inhibition result is on record as “uncompetitive”. In addition, in the data set with catalase, the “Catalase Fold” value is reported as over 300 fold. Moreover, the “cell viability (cytotoxicity)” value with HeLa cells was “good cell viability”. The “impact of human serum protein binding on inhibitory activity” value with human serum protein is recorded as “substantial reduction in inhibitory activity”. Further, at IDO1 [1], the “effect of inhibitor on CO-bound ferrous IDO1” value is recorded as “inhibitor binding partially prevents CO binding to the heme iron” and the “Soret band … on inhibitor binding” value was 419–421 nm.

Regarding `NOCc1ccccc1` [Lead, O-benzylhydroxylamine], on IDO1 [1], the “effect of inhibitor on CO-bound ferrous IDO1” value is on record as “inhibitor binding prevents CO binding to the heme iron” and the “Soret band … on inhibitor binding” value is 419–421 nm.

Consider `Cl.NOCc1cccc(Cl)c1` [Compound 9, O-(3-Chlorobenzyl)hydroxylamine hydrochloride], for which, on IDO1 [2], the “reversibility of IDO1 inhibition” value is reported as “reversible”, the ligand efficiency turned out to be 0.93 and the mode of inhibition entry is listed as “uncompetitive”. For the same compound, the “Catalase Fold” value with catalase is listed as over 320 fold. Further, the “cell viability (cytotoxicity)” value in the data set on HeLa cells was “good cell viability”. For the same compound, the “impact of human serum protein binding on inhibitory activity” value with human serum protein is reported as “relatively unaffected”.

In the case of `NOCCc1ccccc1` [Compound 5, O-Phenethylhydroxylamine hydrochloride], the IC50 on IDO1 [2] stood at 20 µM.
